{"source": "patent US8911750B2", "about": "“Lung volume reduction therapy using crosslinked biopolymers” (priority 2007, dated 2014)", "tested_on": "tissue", "assay": "Local tissue toxicity of glutaraldehyde by concentration", "type": "in vivo", "details": "below this level limited local toxicity", "data": [{"smiles": "O=CCCCC=O", "note": "[glutaraldehyde]", "values": [{"measurement": "concentration that produces significant tissue necrosis", "value": "≥ 0.75", "unit": "%"}]}]}
